The text below walks through data of patent publication US20070111251A1, “Chemical address tags” (priority 2003, published 2007).

Data set [1] deals with mitochondria. Description: QSLR factorial logistic regression of mitochondrial localization (affinity coefficients, cross-validated prediction). The arrangement: species or system human. Particulars: for αi^mito: influence of A group on mitochondrial localization, greater = stronger; for estimated A group affinity coefficient ai / estimated B group affinity coefficient bj: mitochondrial affinity; for estimated A group affinity coefficient ai: ±5 for groups always or never mitochondrial; for βj^mito: influence of B group on mitochondrial localization. An excerpt: The first column and first row contain the A group and B group labels. The second column and second row contain the estimated A group and B group affinity coefficients (ai and bj respectively). The interior of the table contains the value sij=ai+bj for each compound (where positive values of sij indicate predicted localization to mitochondria, and negative values of sij indicate predicted localization to a non-mitochondrial compartment). The subscript m indicates experimentally determined mitochondrial localization. The subscript o indicates experimentally determined non-mitochondrial localization. The darkened boxes indicate correctly predicted mitochondrial localizations under cross-validation.
Based on this matrix, factorial logistic regression (See, A. Agresti, Categorical Data Analysis, Wiley [2002]) was used to calculate mitochondrial affinity coefficients (ai and bj) for each A and B moiety. (Table 1). Since it is not necessary to observe all possible pairings between A and B building blocks to estimate the affinity coefficients, the QSLR approach can predict localization of unmeasured styryl molecules based on a minimal set of experimentally-determined localizations (see Methods). The methods of the present invention allow assessment of predictivity using the cross-validation technique by holding out one compound and fitting the affinity coefficients using the remaining compounds, predictivity can be assessed by comparing the actual localization of the held-out compound to its predicted localization. Repeating this for every measured compound in the library yields an error rate for the procedure.
Briefly, this technique assigns quantitative scores to each A group (αi^mito) and to each B group (βj^mito), in such a way that αi^mito+βj^mito is positive for compounds with mitochondrial localization, and is negative for compounds lacking mitochondrial localization. […] In additional embodiments, same analysis can be applied to organelles other than mitochondria, provided there are a sufficient number of localizations to specific non-mitochondrial organelles in the combinatorial library of interest for reliable statistical calculations.
In certain embodiments, the predictive performance of the above method was assessed using a cross-validation approach by calculating the proportion of all compounds that are correctly predicted. For cross-validation, each styryl product was set aside in sequence, and the factorial logistic model was fit to the remaining data. Then the resulting A and B scores for the held-out compound were summed. If the sum was positive, the held-out compound was predicted to be mitochondrial, while if the sum was negative, the held-out compound was predicted to be non-mitochondrial. […] The baseline performance of the method scored 104 correct out of 145, or 72%. This number is highly statistically significant compared to random guessing (p-value ˜10^−7). Thus, across the entire library, A and B moieties appear to contribute to localization in an independent, additive fashion.
In some embodiments, subcellular localization data were converted to binary (0/1) values by assigning a value Gij=1 if compound i,j localized to mitochondria (even if it localized to other […] as well), and assigning Gij=0 if compound i,j localized exclusively to any non-mitochondrial cellular structure. Compounds with no localization were omitted from this part of the analysis. The αi and βj coefficients for A or B groups that are always observed to localize to mitochondria, or that never localize to mitochondria, were set to +/−5, respectively. The binary localization data were analyzed using factorial logistic regression. […]

Data set [2] in a line: Additive decomposition of peak excitation and emission wavelengths (model coefficients of A and B groups). Particulars: for αi^em: influence of A group on peak emission wavelength; for αi^em / αi^ex: A group 1 as baseline; for αi^ex: influence of A group on peak excitation wavelength; for βj^em: influence of B group on peak emission wavelength; for βj^em / βj^ex: B group 1 as baseline; for βj^ex: influence of B group on peak excitation wavelength. From the text:
The chemical structure of the styryl library is illustrated in FIG. 3. […] Initial analysis focused on measurements of peak emission and excitation wavelength obtained for all styryl products showing a single, localized peak (there were 256 such compounds for emission wavelength, and 193 compounds for excitation wavelength). […] The wavelength for the styryl compound formed by joining A group i with B group j is denoted as λij (or more specifically, λij^ex for excitation wavelength and λij^em for emission wavelength). The additive model λij=ai+βj+εij was fit to the data using least squares yielding parameters αi^ex, αi^em, βj^ex, and βj^em that quantify the influence of each A and B group on the spectrum of the styryl product. […] (FIGS. 8A-8B). […] The predictions were made ignoring interactions between the two functional moieties in the styryl compound. The predicted values were obtained without bias, by holding out the data point to be predicted when training the model.
In preferred embodiments, using the cross-validation approach disclosed herein, each compound was held out in sequence, the model was trained using the remaining compounds, then the wavelength value for the held-out compound was predicted based on the resulting fitted model. This process produced correlations between measured and predicted values of ρ^em=0.78 (emission) and ρ^ex=0.69 (excitation).
Based on this analysis, the contribution of the A and B functional groups to the fluorescence of the styryl product is quantified using the fitted coefficients αi^ex, βj^ex, […], and βj^em. Since these coefficients are on a scale without origin, in some embodiments, the invention uses the first A group and B group as a baseline, so […], β1^ex=0, and so on. Table 3 contains the model coefficients of all A and B groups for peak excitation and emission wavelength.
Greater values of αi^ex, αi^em, βj^ex, and βj^em indicate greater peak wavelength. Greater values of αi^mito and […] indicate stronger mitochondrial localization. A groups 40 and 41 were not screened for localization. A groups 2, 29, and 33 only formed fluorescent products with a single B group, so were not included in the spectral analysis.
In some embodiments, the wavelength values for peak excitation and emission were fit to the additive model λij=αi+βj+εij, where εij denotes error that is made as small as possible in the fitting process. Using least squares to minimize the function [formula] over all compounds having experimental data yields coefficient estimates αi for each A group and βj for each B group. One set of coefficient estimates is obtained for the excitation values and another set is obtained for the emission values. To predict the wavelength of a new compound formed from A and B groups i* and j* the sum αi*+βj* is used.
In some embodiments, for both the spectral and localization analysis, cross-validation was used to obtain unbiased estimates of the prediction performance. Each compound was held out in sequence, and the coefficients αi and βj were fit to the remaining compounds. These values were then used to form a prediction for the held out compound, then the predicted and experimental values were compared to obtain a measure of the accuracy of prediction. Since the wavelength values are on a continuous scale, the predicted values were compared to the experimental values using Pearson correlation coefficients. The localization values are dichotomous, so the proportion of matching predictions was used to compare predicted and experimental localization values.

On to `O=CCc1ccccc1` [A group 1], for which, in data set [1], the “αi^mito” value is recorded as −0.2 and the “estimated A group affinity coefficient ai” value is given as −0.2. Besides, in data set [2], the “αi^em” value came to 0.0 nm and the “αi^ex” value is reported as 0.0 nm.
`O=Cc1ccccc1Br` [A group 3]: in data set [1], the “αi^mito” value is on record as 5.0 and the “estimated A group affinity coefficient ai” value is reported as 5.0. In addition, in data set [2], the “αi^em” value was determined as 46.3 nm and the “αi^ex” value worked out at 35.7 nm.
For the compound `O=Cc1c2ccccc2cc2ccccc12` [A group 34], in data set [1], the “influence of A group on mitochondrial localization” value was “mitochondrial repulsion”, the “αi^mito” value was −5.0 and the “estimated A group affinity coefficient ai” value is listed as 5.0. Also, in data set [2], the “influence of group on peak wavelength” value is on record as “redder”, the “αi^em” value turned out to be 58.8 nm and the “αi^ex” value came out at 14.1 nm.
`Cc1cnc2c(ccc3c(C)c(C)c[n+](C)c32)c1C.[I-]` [B group 14]: in data set [1], the “βj^mito” value is given as 0.0 and the “estimated B group affinity coefficient bj” value is recorded as 0.1. Further, in data set [2], the “influence of group on peak wavelength” value is recorded as “strongly contribute towards the red end of the spectrum”, the “βj^em” value came out at 57.9 nm and the “βj^ex” value came out at 100.6 nm.
`O=CC=Cc1ccccc1[N+](=O)[O-]` [A group 36]: in data set [1], the “αi^mito” value was 5.0 and the “estimated A group affinity coefficient ai” value is on record as 5.0. In data set [2], the “influence of group on peak wavelength” value was “the far red shift is not observed”, the “αi^em” value is given as 3.8 nm and the “αi^ex” value was −25.3 nm.
On to `COc1ccc2c(ccc(C)[n+]2C)c1.[I-]` [B group 9], for which, in data set [1], the “βj^mito” value is on record as −2.0 and the “estimated B group affinity coefficient bj” value is −2.0. For the same compound, in data set [2], the “influence of group on peak wavelength” value is reported as “strongly contribute towards the red end of the spectrum”, the “βj^em” value was 35.0 nm and the “βj^ex” value is given as −0.1 nm.
In the case of `O=Cc1ccc(Cl)cc1` [A group 6], in data set [1], the “αi^mito” value is given as 5.0 and the “estimated A group affinity coefficient ai” value is on record as 5.0. In data set [2], the “αi^em” value is listed as −9.5 nm and the “αi^ex” value stood at 4.9 nm.
In the case of `O=Cc1cccc([N+](=O)[O-])c1` [A group 21], in data set [1], the “αi^mito” value is on record as 0.8 and the “estimated A group affinity coefficient ai” value is recorded as 0.8. Also, in data set [2], the “influence of group on peak wavelength” value was “the far red shift is not observed”, the “αi^em” value was 21.6 nm and the “αi^ex” value is reported as −68.0 nm.
Take `COc1ccc(C=O)cc1` [A group 10]: in data set [1], the “αi^mito” value is given as 1.3 and the “estimated A group affinity coefficient ai” value was 1.3. Besides, in data set [2], the “αi^em” value is recorded as −23.7 nm and the “αi^ex” value amounted to 8.1 nm.
For `COc1ccc(C=O)c2ccccc12` [A group 14], in data set [1], the “αi^mito” value is −1.2 and the “estimated A group affinity coefficient ai” value is on record as −1.2. Also, in data set [2], the “αi^em” value came to 0.3 nm and the “αi^ex” value is −1.6 nm.
Take `CC(=O)Nc1ccc(C=O)cc1` [A group 18]: in data set [1], the “αi^mito” value is given as 0.8 and the “estimated A group affinity coefficient ai” value is given as 0.8. Moreover, in data set [2], the “influence of group on peak wavelength” value is reported as “strongly contribute towards the red end of the spectrum”, the “αi^em” value was 51.2 nm and the “αi^ex” value is −24.3 nm.
With `COc1ccc(C=O)cc1OC` [A group 11], in data set [1], the “αi^mito” value is 5.0 and the “estimated A group affinity coefficient ai” value is reported as 5.0. In addition, in data set [2], the “αi^em” value is −26.7 nm and the “αi^ex” value was −14.3 nm.
Turning to `Cc1cc[n+](C)c(Br)c1.[I-]` [B group 6], in data set [1], the “βj^mito” value was −5.0 and the “estimated B group affinity coefficient bj” value is reported as −5.0. In data set [2], the “βj^em” value is reported as 3.5 nm and the “βj^ex” value is on record as 27.7 nm.
Consider `Cc1ccc(C=O)cc1` [A group 8], for which, in data set [1], the “αi^mito” value is reported as 5.0 and the “estimated A group affinity coefficient ai” value is 5.0. Besides, in data set [2], the “αi^em” value worked out at 38.5 nm and the “αi^ex” value is 10.9 nm.
For the compound `O=Cc1c(F)c(F)c(F)c(F)c1F` [A group 31], in data set [1], the “αi^mito” value is listed as 5.0 and the “estimated A group affinity coefficient ai” value is 5.0. In data set [2], the “αi^em” value is 6.9 nm and the “αi^ex” value is −22.4 nm.
With `O=Cc1ccccc1[N+](=O)[O-]` [A group 20], in data set [1], the “αi^mito” value is recorded as −2.7 and the “estimated A group affinity coefficient ai” value is recorded as −2.7. Besides, in data set [2], the “influence of group on peak wavelength” value is given as “the far red shift is not observed”, the “αi^em” value turned out to be 44.5 nm and the “αi^ex” value amounted to 6.5 nm.
For the compound `COc1cc(C=O)cc(OC)c1OC` [A group 13], in data set [1], the “αi^mito” value is reported as 5.0 and the “estimated A group affinity coefficient ai” value is on record as 5.0. Also, in data set [2], the “αi^em” value came to 0.2 nm and the “αi^ex” value is recorded as −44.2 nm.
Consider `Cc1cc[n+](C)cc1.[I-]` [B group 1], for which, in data set [1], the “βj^mito” value is listed as 1.9 and the “estimated B group affinity coefficient bj” value is 1.9. Besides, in data set [2], the “βj^em” value stood at 0.0 nm and the “βj^ex” value was 0.0 nm.
For `Cc1cc[n+](C)c(C)c1.[I-]` [B group 11], in data set [1], the “βj^mito” value is recorded as 2.1 and the “estimated B group affinity coefficient bj” value is recorded as 2.1. Also, in data set [2], the “βj^em” value was −4.1 nm and the “βj^ex” value was −4.2 nm.
Take `O=Cc1ccc(-c2ccccc2)cc1` [A group 17]: in data set [1], the “influence of A group on mitochondrial localization” value is “mitochondrial repulsion”, the “αi^mito” value was −5.0 and the “estimated A group affinity coefficient ai” value is −5.0. Moreover, in data set [2], the “influence of group on peak wavelength” value was “bluer”, the “αi^em” value is on record as −46.6 nm and the “αi^ex” value was −14.3 nm.
On to `Cc1ccccc1C=O` [A group 7], for which, in data set [1], the “αi^mito” value is 5.0 and the “estimated A group affinity coefficient ai” value was 5.0. In addition, in data set [2], the “αi^em” value stood at 38.5 nm and the “αi^ex” value is on record as −44.1 nm.
Consider `O=Cc1ccccc1F` [A group 29], for which, in data set [1], the “αi^mito” value is recorded as 5.0 and the “estimated A group affinity coefficient ai” value is 5.0. Besides, in data set [2], the “αi^em” value is given as −8.0 nm.
